Reference: patent US8420621B2, “Methods of using gamma cyclodextrin to control blood glucose and insulin secretion” (Abbott Laboratories, priority 2004, dated 2013)

Tests used:
[1] = test system: healthy adult subjects; assay: Clinical study: postprandial serum insulin response (ELISA); assay type: in vivo, human
From the text: Thirty-two healthy adult subjects received two treatments in a double-masked, randomized, crossover design. The two treatments consisted of 50 g challenges of either maltodextrin or gamma-cyclodextrin. Blood samples were collected over a three-hour period, and breath samples collected over an eight-hour period following consumption of each carbohydrate. […] This study utilized a randomized, double-masked, crossover design, with a 4-14 day washout period between treatments. Before completing the two treatment visits, each subject completed one pre-study gastrointestinal tolerance test visit. Randomization was carried out by sealed envelopes stating which pre-study treatment was to be received, as well as in which sequence the two treatment visits were to be carried out. These envelopes were prepared from randomization schedules generated at Ross Products Division of Abbott Laboratories, Two product coordinators assigned an envelope from the top of the pile to each subject in the order that they passed all screening criteria and were given subject numbers. Besides carrying out randomization, the product coordinators were responsible for study product inventory and serving the appropriate product to subjects at each visit so that other study staff could not become aware of the study product identity. […] At each of the two treatment visits, subjects received 16 fl oz of a study product containing either 50 g of maltodextrin or 50 g of gamma-cyclodextrin. All beverages were served cold in styrofoam cups with lids and straws, labeled only with the subject number, subject initials and visit number, with the intention of hiding any slight differences in appearance that could be visible to study staff or subjects. […] A breath sample was collected for measurement of breath hydrogen. […] After consumption of the study beverage, the subject resumed fasting. Time 0 was designated as the time at which the subject began drinking the study beverage. […] Subjects were limited to the consumption of 8 fl oz of water during this three hour blood collection period. Approximately 10 mL of normal saline was injected into the vein after each blood draw in order to keep the line open and to replace the fluid lost from the blood collected. Insulin was analyzed using DSL-10-1600 Insulin ELISA Kits (Diagnostic Systems Laboratories, mc, Webster, Tex.). […] An acidic stopping solution is then added and the enzymatic turnover of TMB is determined by dual wavelength absorbance measurement at 450 and 620 nanometers. […] is proportional to the concentration of insulin present. […]

[2] = test system: healthy adult subjects; assay: Clinical study: gastrointestinal tolerance, stool frequency and consistency; assay type: in vivo, human
Protocol: For the pre-study tolerance test, subjects were instructed to not consume anything the day before that was known by them to cause gastrointestinal symptoms. They also completed an overnight 10-16 hour fast. The morning of the test visit, subjects reported to the study site and consumed 8 fl oz of one of the two study beverages within 10 minutes. The study beverage contained either 25 […] of maltodextrin or 25 grams of gamma-cyclodextrin. Subjects then resumed fasting. Subjects were allowed to leave the study site after the beverage had been consumed, however they were instructed to remain fasting for three hours from the time they began drinking the beverage. Subjects recorded gastrointestinal tolerance symptoms and stool frequency and consistency for 24 hours from the time they began drinking the study beverage. Upon subject completion of the gastrointestinal tolerance symptoms and stool frequency and consistency forms, the data were reviewed for signs of abnormal tolerance by a physician. The purpose of this symptom review was to determine if the product was generally well-tolerated. […] After the 180-minute blood and breath samples were collected, the subject was allowed to leave the study site and collect the remaining breath samples (hours 4-8) on their own. During the remainder of the breath collection period, the subject was instructed to refrain from sleep and exercise. Subjects were to remain fasting with the exception of an optional one or two 8 fl oz cans of Ensure® Plus. The flavor given to each subject was the same as that which was chosen for the pre-treatment meals, and the number of cans chosen remained constant for both treatments. Subjects were allowed to consume water as desired during this time. After completion of breath sample collection, subjects were free to resume their normal sleeping, eating, and exercise patterns. They continued to record gastrointestinal symptoms, stool frequency and consistency, and medication usage for the next 48 hours. […]

With `OC[C@H]1O[C@@H]2O[C@H]3[C@H](O)[C@@H](O)[C@@H](O[C@H]4[C@H](O)[C@@H](O)[C@@H](O[C@H]5[C@H](O)[C@@H](O)[C@@H](O[C@H]6[C@H](O)[C@@H](O)[C@@H](O[C@H]7[C@H](O)[C@@H](O)[C@@H](O[C@H]8[C@H](O)[C@@H](O)[C@@H](O[C@H]9[C@H](O)[C@@H](O)[C@@H](O[C@H]1[C@H](O)[C@H]2O)O[C@@H]9CO)O[C@@H]8CO)O[C@@H]7CO)O[C@@H]6CO)O[C@@H]5CO)O[C@@H]4CO)O[C@@H]3CO` [Gamma-Cyclodextrin, Gamma-cyclodextrin] the “Serum insulin area under the curve (AUC), effect versus maltodextrin” value ([1]; 50 g oral challenge) was “significantly reduced”, the “Positive incremental 120 min serum insulin AUC” value ([1]; 50 g oral, mean±SEM, n=27 maltodextrin, n=31 gamma-cyclodextrin) was 993.4±131.6 and the “Adjusted peak insulin value compared with maltodextrin” value ([1]; 50 g oral, p=0.0003) was “significantly decreased”. The “Relative insulinemic response compared to maltodextrin” value ([1]; baseline to 120 min, 50 g oral) was 51%, the “Gastrointestinal tolerance versus maltodextrin, pre-study tolerance test” value ([2]; 25 grams oral, 24 hours, reviewing physician) was “no significant differences” and the “Stool frequency and consistency, difference between treatments” value ([2]; 50 g oral) was “no significant differences”. The “Intensity and frequency of nausea, difference between treatments” value ([2]; first 24 hours after 50 g oral, crossover analysis) was “not significantly different”.
